Test results published in ChEMBL document CHEMBL1649437, “Inhaled voriconazole for prevention of invasive pulmonary aspergillosis” (Antimicrob Agents Chemother, 2009).
Activity calls are given as the source filed them. The calls are words filed in the database; no cut-off is given here.

Legend:
[1] = system: Aspergillus fumigatus; assay: Antifungal activity against Aspergillus fumigatus isolate Af293 infected in immunosuppressed ICR mouse assessed as increased survival of mouse at 6.25 mg/ml twice daily administered 2 days prior to infection via nebulization until day 7 (Rvb= 25%); format: functional
[2] = system: Aspergillus fumigatus; assay: Antifungal activity against Aspergillus fumigatus isolate Af293 infected in immunosuppressed ICR mouse assessed as median survival time at 6.25 mg/ml twice daily 2 days prior to infection via nebulization; format: functional
[3] = system: Aspergillus fumigatus; assay: Antifungal activity against Aspergillus fumigatus isolate Af293 infected in immunosuppressed ICR mouse assessed as decreased lung vascular damage at 6.25 mg/ml twice daily administered 2 days prior to infection via nebulization measured on day 12 by histopathological analysis; format: functional, organism-based
[4] = system: Mus musculus; assay: Toxicity in immunosuppressed ICR mouse assessed as inflammatory changes at 6.25 mg/ml twice daily administered 2 days prior to infection via nebulization; format: organism-based; settings: in vivo, inhaled_or_intranasal, 48 h
[5] = system: Aspergillus fumigatus; assay: Antifungal activity against Aspergillus fumigatus isolate Af293 infected in immunosuppressed ICR mouse assessed as increased survival of mouse at 6.25 mg/ml twice daily administered 2 days prior to infection via nebulization until day 12 (Rvb= 17%); format: functional
[6] = system: Aspergillus fumigatus; assay: Antifungal activity against Aspergillus fumigatus isolate Af293 infected in immunosuppressed ICR mouse assessed as decreased lung vascular damage at 6.25 mg/ml twice daily administered 2 days prior to infection via nebulization measured on day 8 by histopathological analysis; format: functional, organism-based
[7] = system: Aspergillus fumigatus; assay: Antifungal activity against Aspergillus fumigatus isolate Af293 infected in immunosuppressed ICR mouse assessed as decrease in invasive lung disease at 6.25 mg/ml twice daily administered 2 days prior to infection via nebulization measured on day 12 by light microscopic analysis; format: functional, organism-based
[8] = Cmax in mouse serum; format: ADME, organism-based
[9] = system: Mus musculus; assay: Toxicity in immunosuppressed ICR mouse assessed as lung injury at 6.25 mg/ml twice daily administered 2 days prior to infection via nebulization; format: organism-based; settings: in vivo, inhaled_or_intranasal, 48 h
[10] = system: Aspergillus fumigatus; assay: Antifungal activity against Aspergillus fumigatus isolate Af293 infected in immunosuppressed ICR mouse assessed as conidial equivalents per gram of tissue at 6.25 mg/ml twice daily administered 2 days prior to infection via nebulization measured on day 8 by real-time quantitative PCR; format: functional
[11] = system: Aspergillus fumigatus; assay: Antifungal activity against Aspergillus fumigatus isolate Af293 infected in immunosuppressed ICR mouse assessed as pulmonary fungal burden at 6.25 mg/ml twice daily administered 2 days prior to infection via nebulization measured on day 8 by real-time quantitative PCR; format: functional
[12] = Cmax in mouse lung; format: ADME, organism-based
[13] = system: Aspergillus fumigatus; assay: Antifungal activity against Aspergillus fumigatus isolate Af293 infected in immunosuppressed ICR mouse assessed as assessed as decrease in invasive lung disease at 1 mg/kg, ip once daily measured on day 12 by light microscopic analysis; format: functional, organism-based; design: dose 1 mg/kg
[14] = system: Aspergillus fumigatus; assay: Antifungal activity against Aspergillus fumigatus isolate Af293 infected in immunosuppressed ICR mouse assessed as decreased lung vascular damage at 1 mg/kg, ip once daily measured on day 8 by histopathological analysis; format: functional, organism-based; design: dose 1 mg/kg
[15] = system: Aspergillus fumigatus; assay: Antifungal activity against Aspergillus fumigatus isolate Af293 infected in immunosuppressed ICR mouse assessed as median survival time at 3 mg/kg, ip once daily; format: functional; settings: route intraperitoneal
[16] = system: Aspergillus fumigatus; assay: Antifungal activity against Aspergillus fumigatus isolate Af293 infected in immunosuppressed ICR mouse assessed as median survival time at 1 mg/kg, ip once daily; format: functional; settings: route intraperitoneal
[17] = system: Aspergillus fumigatus; assay: Antifungal activity against Aspergillus fumigatus isolate Af293 infected in immunosuppressed ICR mouse assessed as assessed as decrease in invasive lung disease at 1 mg/kg, ip once daily measured on day 8 by light microscopic analysis; format: functional, organism-based; design: dose 1 mg/kg
[18] = system: Aspergillus fumigatus; assay: Antifungal activity against Aspergillus fumigatus isolate Af293 infected in immunosuppressed ICR mouse assessed as increased survival of mouse at 1 mg/kg, ip once daily until day 12; format: functional; settings: route intraperitoneal
[19] = system: Aspergillus fumigatus; assay: Antifungal activity against Aspergillus fumigatus isolate Af293 infected in immunosuppressed ICR mouse assessed as decreased lung vascular damage at 1 mg/kg, ip once daily measured on day 12 by histopathological analysis; format: functional, organism-based; design: dose 1 mg/kg
[20] = system: Aspergillus fumigatus; assay: Antifungal activity against Aspergillus fumigatus isolate Af293 infected in immunosuppressed ICR mouse assessed as conidial equivalents per gram of tissue at 1 mg/kg, ip once daily administered 1 day post infection measured on day 8 by real-time quantitative PCR; format: functional; settings: route intraperitoneal
[21] = system: Aspergillus fumigatus; assay: Antifungal activity against Aspergillus fumigatus isolate Af293 infected in immunosuppressed ICR mouse assessed as decrease in invasive lung disease at 6.25 mg/ml twice daily administered 2 days prior to infection via nebulization measured on day 8 by light microscopic analysis; format: functional, organism-based
[22] = system: Aspergillus fumigatus; assay: Antifungal activity against Aspergillus fumigatus isolate Af293 infected in immunosuppressed ICR mouse assessed as pulmonary fungal burden at 1 mg/kg, ip once daily administered 1 day post infection measured on day 8 by real-time quantitative PCR; format: functional; settings: route intraperitoneal
[23] = system: Aspergillus fumigatus; assay: Antifungal activity against Aspergillus fumigatus isolate Af293 infected in immunosuppressed ICR mouse assessed as increased survival of mouse at 1 mg/kg, ip once daily until day 7; format: functional; settings: route intraperitoneal

C[C@@H](c1ncncc1F)[C@](O)(Cn1cncn1)c1ccc(F)cc1F [VORICONAZOLE]
Activity [1]: 92%
Time [2]: >12 days
Activity [3]: Active
Activity [4]: Non-toxic
Activity [5]: 67%
Activity [6]: Active
Activity [7]: Active
Cmax [8]: 2320 ng/mL
Activity [9]: Non-toxic
Activity [10]: 5.24
log10cfu [11]: 4.21
Cmax [12]: 6730 ng/g

C[C@@H]1[C@H](O)[C@@H](C)/C=C/C=C/C=C/C=C/C=C/C=C/C=C/[C@H](O[C@@H]2O[C@H](C)[C@@H](O)[C@H](N)[C@@H]2O)C[C@@H]2O[C@](O)(C[C@@H](O)C[C@@H](O)[C@H](O)CC[C@@H](O)C[C@@H](O)CC(=O)O[C@H]1C)C[C@H](O)[C@H]2C(=O)O [AMPHOTERICIN B]
Activity [13]: inactive
Activity [14]: inactive
Activity [15]: 50%
Time [16]: 7 days
Activity [17]: inactive
Activity [18]: 23%
Activity [19]: inactive
Activity [20]: 5.26
Activity [21]: Active
log10cfu [22]: 4.33
Activity [23]: 31%
